Measurements: PubChem BioAssay (NCI)
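Compound exposure: 48 hours, 5 concentrations, 96-well plates. TGI marks complete inhibition of growth.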

Columns and labels:
Test in all cases: NCI-60 cell line screen, 48 h
HL-60(TB) leukemia = system: HL-60(TB) leukemia
SF-539 CNS = system: SF-539 CNS
U251 CNS = system: U251 CNS
HCT-116 colon = system: HCT-116 colon
K-562 leukemia = system: K-562 leukemia
A549 NSCLC = system: A549 NSCLC
HCT-15 colon = system: HCT-15 colon
EKVX NSCLC = system: EKVX NSCLC
HOP-92 NSCLC = system: HOP-92 NSCLC
RPMI-8226 leukemia = system: RPMI-8226 leukemia
NCI-H23 lung = system: NCI-H23 lung
TK-10 renal = system: TK-10 renal
COLO 205 colon = system: COLO 205 colon
SK-MEL-5 melanoma = system: SK-MEL-5 melanoma
MOLT-4 leukemia = system: MOLT-4 leukemia
NCI-H460 lung = system: NCI-H460 lung
NCI-H522 lung = system: NCI-H522 lung
RXF 393 renal = system: RXF 393 renal
UACC-257 melanoma = system: UACC-257 melanoma
NCI/ADR-RES ovarian = system: NCI/ADR-RES ovarian

## O=C(O)C12CCCCC1CCCC2 (stereo not given)
HL-60(TB) leukemia
  TGI: > 100 µM
SF-539 CNS
  TGI: > 100 µM
U251 CNS
  TGI: > 100 µM
HCT-116 colon
  TGI: > 100 µM
K-562 leukemia
  TGI: > 100 µM
A549 NSCLC
  TGI: > 100 µM
HCT-15 colon
  TGI: > 100 µM
EKVX NSCLC
  TGI: > 100 µM
HOP-92 NSCLC
  TGI: > 100 µM
RPMI-8226 leukemia
  TGI: > 100 µM
NCI-H23 lung
  TGI: > 100 µM
TK-10 renal
  TGI: > 100 µM
COLO 205 colon
  TGI: > 100 µM
SK-MEL-5 melanoma
  TGI: > 100 µM
MOLT-4 leukemia
  TGI: > 100 µM
NCI-H460 lung
  TGI: > 100 µM
NCI-H522 lung
  TGI: > 100 µM

## COc1cccc(NC(=O)C(=O)C(C(=O)c2ccccc2F)C2OC(=O)c3ccccc32)c1 (stereo not given)
HL-60(TB) leukemia
  TGI: 54.1 µM
SF-539 CNS
  TGI: 57.3 µM
RXF 393 renal
  TGI: 63.6 µM
U251 CNS
  TGI: 36.2 µM
HCT-116 colon
  TGI: 46.1 µM
UACC-257 melanoma
  TGI: > 100 µM
K-562 leukemia
  TGI: > 100 µM
A549 NSCLC
  TGI: > 100 µM
HCT-15 colon
  TGI: > 100 µM
EKVX NSCLC
  TGI: > 100 µM
HOP-92 NSCLC
  TGI: > 100 µM
RPMI-8226 leukemia
  TGI: 96.1 µM
NCI-H23 lung
  TGI: 98.1 µM
TK-10 renal
  TGI: > 100 µM
COLO 205 colon
  TGI: 39.5 µM
SK-MEL-5 melanoma
  TGI: > 100 µM
MOLT-4 leukemia
  TGI: > 100 µM
NCI-H460 lung
  TGI: > 100 µM
NCI-H522 lung
  TGI: 40.7 µM

## CSc1nc2c(ncn2C2OCC(O)C(O)C2O)c(=O)n1C (stereo not given)
HL-60(TB) leukemia
  TGI: > 100 µM
SF-539 CNS
  TGI: > 100 µM
RXF 393 renal
  TGI: > 100 µM
U251 CNS
  TGI: > 100 µM
HCT-116 colon
  TGI: > 100 µM
UACC-257 melanoma
  TGI: > 100 µM
K-562 leukemia
  TGI: > 100 µM
A549 NSCLC
  TGI: > 100 µM
NCI/ADR-RES ovarian
  TGI: > 100 µM
HCT-15 colon
  TGI: > 100 µM
EKVX NSCLC
  TGI: > 100 µM
HOP-92 NSCLC
  TGI: > 100 µM
RPMI-8226 leukemia
  TGI: > 100 µM
NCI-H23 lung
  TGI: > 100 µM
COLO 205 colon
  TGI: > 100 µM
SK-MEL-5 melanoma
  TGI: > 100 µM
MOLT-4 leukemia
  TGI: > 100 µM
NCI-H460 lung
  TGI: > 100 µM
NCI-H522 lung
  TGI: > 100 µM

## COC(=O)C1=C(OC(=O)/C=C/c2ccc(Cl)cc2)C(C(=O)OC)[C@@]2(O)[C@@H](C(=O)OC)[C@H](C)C[C@@H]1[C@@H]2C(=O)OC (stereo not given in full)
HL-60(TB) leukemia
  TGI: 36.1 µM
SF-539 CNS
  TGI: > 100 µM
RXF 393 renal
  TGI: > 100 µM
U251 CNS
  TGI: > 100 µM
HCT-116 colon
  TGI: 58.3 µM
UACC-257 melanoma
  TGI: > 100 µM
K-562 leukemia
  TGI: > 100 µM
A549 NSCLC
  TGI: > 100 µM
NCI/ADR-RES ovarian
  TGI: 64.6 µM
HCT-15 colon
  TGI: 57 µM
EKVX NSCLC
  TGI: 71.8 µM
NCI-H23 lung
  TGI: 46 µM
TK-10 renal
  TGI: > 100 µM
COLO 205 colon
  TGI: 40.7 µM
SK-MEL-5 melanoma
  TGI: 32.2 µM
MOLT-4 leukemia
  TGI: 96.4 µM
NCI-H460 lung
  TGI: > 100 µM
NCI-H522 lung
  TGI: 23.1 µM

## COc1cc2c(cc1OC)C(=O)/C(=C/c1cc(OC)c(OC)c(OC)c1)C2
HL-60(TB) leukemia
  TGI: > 100 µM
RXF 393 renal
  TGI: > 100 µM
U251 CNS
  TGI: > 100 µM
K-562 leukemia
  TGI: > 100 µM
NCI/ADR-RES ovarian
  TGI: > 100 µM
HCT-15 colon
  TGI: > 100 µM
HOP-92 NSCLC
  TGI: > 100 µM
RPMI-8226 leukemia
  TGI: > 100 µM
NCI-H23 lung
  TGI: > 100 µM
COLO 205 colon
  TGI: > 100 µM
SK-MEL-5 melanoma
  TGI: > 100 µM
MOLT-4 leukemia
  TGI: > 100 µM
NCI-H460 lung
  TGI: > 100 µM
NCI-H522 lung
  TGI: 51 µM

## O=C1C(Cl)N(c2cccc([N+](=O)[O-])c2)C1c1c[nH]c2ccccc12 (stereo not given)
HL-60(TB) leukemia
  TGI: > 100 µM
SF-539 CNS
  TGI: 40.7 µM
RXF 393 renal
  TGI: 27 µM
U251 CNS
  TGI: 56.6 µM
HCT-116 colon
  TGI: 44.6 µM
UACC-257 melanoma
  TGI: 49 µM
K-562 leukemia
  TGI: 64.1 µM
A549 NSCLC
  TGI: 56.3 µM
EKVX NSCLC
  TGI: 96.8 µM
HOP-92 NSCLC
  TGI: 47.9 µM
RPMI-8226 leukemia
  TGI: 52.2 µM
NCI-H23 lung
  TGI: 85.9 µM
TK-10 renal
  TGI: 59.4 µM
COLO 205 colon
  TGI: 41.8 µM
SK-MEL-5 melanoma
  TGI: 34.5 µM
MOLT-4 leukemia
  TGI: > 100 µM
NCI-H460 lung
  TGI: 35.4 µM
NCI-H522 lung
  TGI: 48.7 µM

## COC1(O)c2cccc(Cl)c2C(=O)N1C1(C(N)=O)CCCCC1 (stereo not given)
HL-60(TB) leukemia
  TGI: > 100 µM
SF-539 CNS
  TGI: > 100 µM
RXF 393 renal
  TGI: > 100 µM
U251 CNS
  TGI: > 100 µM
HCT-116 colon
  TGI: > 100 µM
UACC-257 melanoma
  TGI: > 100 µM
K-562 leukemia
  TGI: > 100 µM
A549 NSCLC
  TGI: > 100 µM
NCI/ADR-RES ovarian
  TGI: > 100 µM
HCT-15 colon
  TGI: > 100 µM
EKVX NSCLC
  TGI: > 100 µM
HOP-92 NSCLC
  TGI: 40.7 µM
RPMI-8226 leukemia
  TGI: > 100 µM
NCI-H23 lung
  TGI: > 53.1 µM
COLO 205 colon
  TGI: > 100 µM
SK-MEL-5 melanoma
  TGI: > 100 µM
MOLT-4 leukemia
  TGI: > 100 µM
NCI-H460 lung
  TGI: > 100 µM
NCI-H522 lung
  TGI: > 100 µM

## COc1ccc2[nH]c3c(C)c4ccnc(NCCCN(C)CCCNc5ccc6ncn7c8ccccc8c(=O)c5c67)c4c(C)c3c2c1
SF-539 CNS
  TGI: 0.379 µM
RXF 393 renal
  TGI: 0.623 µM
U251 CNS
  TGI: 1.12 µM
HCT-116 colon
  TGI: 3.01 µM
UACC-257 melanoma
  TGI: 2.9 µM
K-562 leukemia
  TGI: 4.25 µM
A549 NSCLC
  TGI: 1.48 µM
NCI/ADR-RES ovarian
  TGI: 4.55 µM
HCT-15 colon
  TGI: 3.45 µM
EKVX NSCLC
  TGI: 2.48 µM
HOP-92 NSCLC
  TGI: 19.2 µM
RPMI-8226 leukemia
  TGI: 4.56 µM
NCI-H23 lung
  TGI: 1.94 µM
TK-10 renal
  TGI: 5.49 µM
COLO 205 colon
  TGI: 4.36 µM
SK-MEL-5 melanoma
  TGI: 4.61 µM
MOLT-4 leukemia
  TGI: 3.13 µM
NCI-H460 lung
  TGI: 0.682 µM
NCI-H522 lung
  TGI: 1.24 µM

## NC12CCC(CC1=O)C2 (stereo not given)
HL-60(TB) leukemia
  TGI: > 100 µM
SF-539 CNS
  TGI: > 100 µM
U251 CNS
  TGI: > 100 µM
HCT-116 colon
  TGI: > 100 µM
UACC-257 melanoma
  TGI: > 100 µM
K-562 leukemia
  TGI: > 100 µM
A549 NSCLC
  TGI: > 100 µM
NCI/ADR-RES ovarian
  TGI: > 100 µM
HCT-15 colon
  TGI: > 100 µM
EKVX NSCLC
  TGI: > 100 µM
HOP-92 NSCLC
  TGI: > 100 µM
RPMI-8226 leukemia
  TGI: > 100 µM
NCI-H23 lung
  TGI: > 100 µM
TK-10 renal
  TGI: > 100 µM
COLO 205 colon
  TGI: > 100 µM
SK-MEL-5 melanoma
  TGI: > 100 µM
MOLT-4 leukemia
  TGI: > 100 µM
